Results: BindingDB's records for patent US20250313563 (The Broad Institute, 2025)
pIC50: −log10 of the molar value. Where “and” joins values, the source holds several entries; their conditions need not be identical. Identical values can stand only once.

How the values were obtained:
[1] = molecular target: Glycogen synthase kinase-3 alpha (Homo sapiens, UniProt P49840); experiment: TR-FRET Assay
Procedure, shortened: (§1)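 30 min preinc w/ cpd in assay buffer → kinase rxn → EDTA quench → add detection mix (40 nM SA-d2, 2 nM Tb-pSer641 Ab) → TR-FRET read.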

[2] = molecular target: Glycogen synthase kinase-3 beta (Homo sapiens, UniProt P49841); experiment: TR-FRET Assay
Chain of Glycogen synthase kinase-3 beta (P49841 whole entry): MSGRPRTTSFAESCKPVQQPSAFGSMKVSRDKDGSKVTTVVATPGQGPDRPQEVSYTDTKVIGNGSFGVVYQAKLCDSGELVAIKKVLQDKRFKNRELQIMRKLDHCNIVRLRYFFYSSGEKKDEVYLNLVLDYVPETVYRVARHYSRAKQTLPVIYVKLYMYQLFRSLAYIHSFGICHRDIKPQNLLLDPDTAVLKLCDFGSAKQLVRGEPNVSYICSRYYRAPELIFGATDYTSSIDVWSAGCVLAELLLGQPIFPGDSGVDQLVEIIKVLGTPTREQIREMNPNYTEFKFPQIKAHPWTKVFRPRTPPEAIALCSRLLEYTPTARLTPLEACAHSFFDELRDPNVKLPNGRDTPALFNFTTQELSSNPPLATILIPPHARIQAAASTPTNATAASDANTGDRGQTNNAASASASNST
Procedure, shortened: as §1

Chain of Glycogen synthase kinase-3 alpha (P49840 whole entry): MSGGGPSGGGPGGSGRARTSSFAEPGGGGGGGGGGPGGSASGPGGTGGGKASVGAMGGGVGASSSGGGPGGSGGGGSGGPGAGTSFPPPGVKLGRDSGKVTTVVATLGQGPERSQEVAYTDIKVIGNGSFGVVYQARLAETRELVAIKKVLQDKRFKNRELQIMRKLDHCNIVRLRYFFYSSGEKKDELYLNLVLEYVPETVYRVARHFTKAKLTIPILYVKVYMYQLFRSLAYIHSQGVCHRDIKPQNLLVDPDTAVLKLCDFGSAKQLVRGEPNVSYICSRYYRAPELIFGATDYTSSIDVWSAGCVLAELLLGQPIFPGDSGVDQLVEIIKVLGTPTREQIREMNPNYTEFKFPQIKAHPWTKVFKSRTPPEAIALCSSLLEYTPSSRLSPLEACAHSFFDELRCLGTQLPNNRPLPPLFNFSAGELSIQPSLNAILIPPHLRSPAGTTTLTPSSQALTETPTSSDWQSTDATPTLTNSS

SMILES	pIC50 [1]	pIC50 [2]
CC(C)(C)CC1N=NC2=C1[C@](C)(c1ccccc1)C1=C(CC(C)(C)NC1=O)N2 (some centres undefined) [US20250313563, Compound 114531]	< 5.30	5.30 to 6.00
CC[C@]1(c2cccc(C(F)(F)F)c2)C2=CN=NC2NC2=C1C(=O)N(c1cc(C)n(C)n1)CC2 (some centres undefined) [US20250313563, Compound 951939]	> 7.00	6.00 to 7.00
CCC1(c2cccc(-c3ccccc3)c2)C2=CN=NC2NC2=C1C(=O)CC(C)(C)C2 (centres undefined) [US20250313563, Compound 789514]	6.00 to 7.00	6.00 to 7.00
CCC1(c2cccc(-c3ccncc3)c2)C2=CN=NC2NC2=C1C(=O)CC(C)C2 (centres undefined) [US20250313563, Compound 856947]	> 7.00	6.00 to 7.00
CCC1(c2cccc(Cl)c2)C2=C(CC(C)(C)CC2=O)NC2N=NC(C(F)(F)F)=C21 (centres undefined) [US20250313563, Compound 789566]	> 7.00	> 7.00
CC[C@@]1(c2cccc(C(F)(F)F)c2)C2=CN=NC2NC2=C1C(=O)N(c1ccc(C)cc1)CC2 (some centres undefined) [US20250313563, Compound 949119]	5.30 to 6.00	< 5.30
CC[C@@]1(c2cccc(-c3ccnc(C)c3OC)c2)C2=CN=NC2NC2=C1C(=O)CC(C)(C)C2 (some centres undefined) [US20250313563, Compound 945997]	> 7.00 and 6.00 to 7.00	> 7.00 and 5.30 to 6.00
CC[C@]1(c2cccc(N(C)c3cccc(OC)n3)c2)C2=CN=NC2NC2=C1C(=O)CC(C)(C)C2 (some centres undefined) [US20250313563, Compound 932646]	< 5.30	< 5.30
CC[C@]1(c2cccc(-c3cnn4ccncc34)c2)C2=CN=NC2NC2=C1C(=O)NC(C)(C)C2 (some centres undefined) [US20250313563, Compound 949263]	< 5.30	< 5.30
CCC1(c2cccc(C(F)(F)F)c2)C2=CN=NC2NC2=C1C(=O)N(c1ccc(F)cc1)CC2 (centres undefined) [US20250313563, Compound 947748]	> 7.00	6.00 to 7.00
CCC1(c2cccc(C(C)C)c2)C2=C(CC(C)(C)NC2=O)NC2N=NC(C(F)(F)F)=C21 (centres undefined) [US20250313563, Compound 949747]	> 7.00	> 7.00
CC[C@@]1(c2cccc(-c3cnn(CCOC)c3)c2)C2=C(CC(C)(C)CC2=O)NC2N=NC(C)=C21 (some centres undefined) [US20250313563, Compound 913027]	> 7.00	> 7.00
CCC1(c2cccc(N(C)C(=O)c3ccccc3)c2)C2=CN=NC2NC2=C1C(=O)CC(C)(C)C2 (centres undefined) [US20250313563, Compound 909201]	> 7.00	6.00 to 7.00
CC[C@]1(c2cccc(-c3ccncc3)c2)C2=CN=NC2NC2=C1C(=O)C[C@H](C)C2 (some centres undefined) [US20250313563, Compound 874318]	> 7.00	6.00 to 7.00
CC[C@@]1(c2cccc(-c3cnn(Cc4cccc(F)c4F)c3)c2)C2=CN=NC2NC2=C1C(=O)NC(C)(C)C2 (some centres undefined) [US20250313563, Compound 951840]	> 7.00	6.00 to 7.00
CC[C@@]1(c2ccccc2)C2=CN=NC2NC2=C1C(=O)[C@H](F)C(C)(C)C2 (some centres undefined) [US20250313563, Compound 957404]	< 5.30	< 5.30
CC[C@@]1(c2cccc(-c3cnn(C)c3C)c2)C2=CN=NC2NC2=C1C(=O)NC(C)(C)C2 (some centres undefined) [US20250313563, Compound 945608]	> 7.00	6.00 to 7.00
CC[C@]1(c2cccc(Oc3ncccn3)c2)C2=C(CC(C)(C)NC2=O)NC2N=NC(F)=C21 (some centres undefined) [US20250313563, Compound 951949]	> 7.00 and 6.00 to 7.00	6.00 to 7.00 and < 5.30
CCC1(c2cccc(-c3cnn(C)n3)c2)C2=CN=NC2NC2=C1C(=O)CC(C)(C)C2 (centres undefined) [US20250313563, Compound 947492]	> 7.00	5.30 to 6.00
CC[C@]1(c2cccc(-c3ccnn3C)c2)C2=CN=NC2NC2=C1C(=O)NC(C)(C)C2 (some centres undefined) [US20250313563, Compound 927389]	> 7.00 and 6.00 to 7.00	> 7.00 and 5.30 to 6.00
CC[C@]1(c2cccc(-c3c(F)cncc3OC)c2)C2=C(N=NC2)NC2=C1C(=O)N(Cc1ccccc1)C2 [US20250313563, Compound 948549]	> 7.00 and 6.00 to 7.00	> 7.00 and 5.30 to 6.00
CC[C@@]1(c2cccc(-c3ccnc(C)c3)c2)C2=CN=NC2NC2=C1C(=O)N[C@@]1(CCOC1)C2 (some centres undefined) [US20250313563, Compound 948149]	> 7.00	6.00 to 7.00
CC[C@@]1(c2cccc(-c3cc(C)ncc3OC)c2)C2=CN=NC2NC2=C1C(=O)CC(C)(C)C2 (some centres undefined) [US20250313563, Compound 945995]	> 7.00 and 6.00 to 7.00	> 7.00 and 5.30 to 6.00
CC[C@]1(c2cccc(-c3c4c(cn3C)CCCC4)c2)C2=CN=NC2NC2=C1C(=O)NC(C)(C)C2 (some centres undefined) [US20250313563, Compound 948655]	> 7.00	6.00 to 7.00
CCC1(c2cccc(C(F)(F)F)c2)C2=CN=NC2NC2=C1C(=O)N(c1ccsc1)CC2 (centres undefined) [US20250313563, Compound 950776]	> 7.00	6.00 to 7.00
CC[C@]1(c2cccc(C(F)(F)F)c2)C2=CN=NC2NC2=C1C(=O)N(C(C)(C)C)CC2 (some centres undefined) [US20250313563, Compound 945633]	< 5.30	< 5.30
CC[C@@]1(c2cccc(C(F)(F)F)c2)C2=CN=NC2NC2=C1C(=O)N(c1cccc(C)c1)CC2 (some centres undefined) [US20250313563, Compound 949041]	5.30 to 6.00	< 5.30
CCC1(c2cccc(N(C)c3cccc(C(F)(F)F)n3)c2)C2=CN=NC2NC2=C1C(=O)CC(C)(C)C2 (centres undefined) [US20250313563, Compound 913122]	6.00 to 7.00	6.00 to 7.00
CCC1(c2cccc(C(F)(F)F)c2)C2=C(N=NC2)NC2=C1C(=O)N(Cc1ccccc1)C2C (centres undefined) [US20250313563, Compound 917162]	> 7.00	6.00 to 7.00

More lines, now with the values ahead:

pIC50 [1]	pIC50 [2]	SMILES
> 7.00	> 7.00 and 6.00 to 7.00	CCC1(c2cccc(-c3c(C)nnn3C)c2)C2=CN=NC2NC2=C1C(=O)CC(C)(C)C2 (centres undefined) [US20250313563, Compound 943996]
> 7.00	> 7.00	COCCn1cc(S(=O)(=O)N2CCC3(CC2)C2=C(N=NC2)NC2=C3C(=O)CC(C)(C)C2)cn1 [US20250313563, Compound 947477]
5.30 to 6.00	< 5.30	CCC1(c2ccn(C)n2)C2=C(N=NC2)NC2=C1C(=O)CC(C)(C)C2 (centres undefined) [US20250313563, Compound 790619]
6.00 to 7.00	6.00 to 7.00	CC1(C)CC(=O)C2=C(C1)NC1=C(CN=N1)[C@]21CCN(S(=O)(=O)c2cccc(F)c2)C1 [US20250313563, Compound 951861]
> 7.00	6.00 to 7.00	CO[C@H]1CC[C@@]2(CC1)C1=C(N=NC1)NC1=C2C(=O)CC(C)(C)C1 [US20250313563, Compound 884119]
> 7.00	> 7.00 and 6.00 to 7.00	CC1(C)CC(=O)C2=C(C1)NC1=C(CN=N1)C21CCN(S(=O)(=O)c2cccc(C#N)c2)CC1 [US20250313563, Compound 947254]
> 7.00 and 5.30 to 6.00	> 7.00 and 5.30 to 6.00	CC1(C)CC(=O)C2=C(C1)NC1=C(CN=N1)[C@@]21CC[C@@H](C(F)(F)F)C1 [US20250313563, Compound 952436]
< 5.30	< 5.30	CC[C@]1(c2cccc(C(F)(F)F)c2)C2=C(N=NC2)NC2=C1C(=O)N(C)C2(C)C [US20250313563, Compound 918251]
< 5.30	< 5.30	CC[C@@]1(c2cccc(N3CCCC[C@H]3C)c2)C2=CN=NC2NC2=C1C(=O)CC(C)(C)C2 (some centres undefined) [US20250313563, Compound 917210]
5.30 to 6.00	6.00 to 7.00	CN(C)S(=O)(=O)c1cccc([C@]2(C)C3=C(CC(C)(C)CC3=O)NC3=C2C(CC(C)(C)C)N=N3)c1 (some centres undefined) [US20250313563, Compound 126012]
> 7.00	> 7.00	CC1(C)CC(=O)C2=C(C1)NC1=C(CN=N1)[C@@]21CCN(S(=O)(=O)CC2CC2)C1 [US20250313563, Compound 951724]
6.00 to 7.00	5.30 to 6.00	CC[C@@]1(c2cccc(-c3ccncc3C)c2)C2=CN=NC2NC2=C1C(=O)CC(C)(C)C2 (some centres undefined) [US20250313563, Compound 943991]
6.00 to 7.00	5.30 to 6.00	CC1(C)CC(=O)C2=C(C1)NC1=C(CN=N1)[C@@]21COC2(CN(C(=O)[C@H]3CC3(F)F)C2)C1 [US20250313563, Compound 948217]
> 7.00	> 7.00 and 6.00 to 7.00	CC1(C)CC(=O)C2=C(C1)NC1=C(CN=N1)C21CCN(S(=O)(=O)C2CCOCC2)CC1 [US20250313563, Compound 913127]
6.00 to 7.00	5.30 to 6.00	CCn1nc(C)c(S(=O)(=O)N2CCC3(CC2)C2=C(N=NC2)NC2=C3C(=O)CC(C)(C)C2)c1C [US20250313563, Compound 945679]
> 7.00	> 7.00 and 6.00 to 7.00	COc1cccc(S(=O)(=O)N2CCC3(CC2)C2=C(N=NC2)NC2=C3C(=O)CC(C)(C)C2)c1F [US20250313563, Compound 945656]
< 5.30	< 5.30	CC1(C)CC(=O)C2=C(C1)NC1=C(CN=N1)C21CN(Cc2ccccc2)C1 [US20250313563, Compound 929436]
6.00 to 7.00	6.00 to 7.00	C[C@H]1CCC[C@@]2(C1)C1=C(N=NC1)NC1=C2C(=O)CC(C)(C)C1 [US20250313563, Compound 893318]
> 7.00	> 7.00	Cc1ccc(C(=O)N2CC3(C2)CC2(CO3)C3=C(N=NC3)NC3=C2C(=O)CC(C)(C)C3)cc1C (centres undefined) [US20250313563, Compound 947286]
> 7.00	> 7.00	CC[C@]1(c2cccc(N(C)C(C)=O)c2)C2=CN=NC2NC2=C1C(=O)CC(C)(C)C2 (some centres undefined) [US20250313563, Compound 810358]
> 7.00	> 7.00	CC1(C)CC(=O)C2=C(C1)NC1=C(CN=N1)C21COC2(CN(C(=O)CC3CC3)C2)C1 (centres undefined) [US20250313563, Compound 947298]
> 7.00	5.30 to 6.00	CCC1(c2cccc(-c3cc(C)nn3C)c2)C2=C(N=NC2)NC2=C1C(=O)NC(C)(C)C2 (centres undefined) [US20250313563, Compound 943371]
> 7.00	6.00 to 7.00	O=C1CC2(CCCCC2)CC2=C1C1(CCOCC1)C1=C(N=NC1)N2 [US20250313563, Compound 893307]
